The record followed here is patent US8822467B2 (Ligand Pharmaceuticals Inc., priority 2009, dated 2014).

Where only a bound is given, the exact number is not on record here.

For one experiment, the target named is T1, human CRTH2 (Homo sapiens, UniProt Q9Y5Y4).
T1 construct: expressed in transfected cells
T1 sequence (Q9Y5Y4 1-395): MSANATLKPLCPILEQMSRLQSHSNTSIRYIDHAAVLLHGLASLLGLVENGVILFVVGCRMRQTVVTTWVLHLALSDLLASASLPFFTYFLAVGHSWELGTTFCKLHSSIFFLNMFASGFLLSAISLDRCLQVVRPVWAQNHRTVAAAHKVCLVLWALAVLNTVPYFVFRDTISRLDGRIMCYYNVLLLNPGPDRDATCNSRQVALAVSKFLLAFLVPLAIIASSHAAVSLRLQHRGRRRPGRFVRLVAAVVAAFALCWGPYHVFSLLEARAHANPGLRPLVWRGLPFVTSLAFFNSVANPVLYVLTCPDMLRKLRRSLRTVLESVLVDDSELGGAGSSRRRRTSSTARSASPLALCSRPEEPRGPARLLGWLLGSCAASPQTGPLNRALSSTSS
The experiment is described as follows: [35S]GTPγS binding assay (SPA) on membranes from CHO-K1 cells stably expressing human CRTH2, stimulated with 60 nM DHK-PGD2. The following applies: membranes of CHO-K1 cells expressing human CRTH2; 60 nM DHK-PGD2; Table 1; read-out: CRTH2 hGTPγS IC50. It counts as biochemical. Here is the method:
[^35S]GTPγS Binding Assay
SPA [^35S]G-TPγS binding was performed on membranes from CHO-K1 cells stably expressing human CRTH2. To a white, clear-bottomed 384-well plate, 4 μg membrane protein was incubated in the binding buffer (20 mM HEPES, pH 7.4, 10 mM MgCl2, 300 mM NaCl, 0.2% BSA) with 60 nM DHK-PGD2, 500 pM [^35S]GTPγS, 10 μM GDP, and 100 μg wheat germ agglutinin-coupled SPA beads (GE Healthcare) with and without increasing concentrations of compounds. The final assay volume was 40 μL and contained 1% DMSO. Samples were incubated for 2 h at ambient temperature. Plates were centrifuged 5 min at 1500 rpm. Plates were read after an additional 4 h using the Trilux 1450 Microbeta (PerkinElmer) with a 30 sec/well reading time.
For orientation: Binding of GTPγS marks nucleotide exchange on a G protein.
`CN(Cc1cc(-c2cccc(C#N)c2)c(OCC(=O)O)cc1Cl)S(=O)(=O)c1ccc(F)c(Cl)c1` [Example 42, 2-(3-cyanophenyl)-4-((3-chloro-4-fluoro-N-methylphenylsulfonamido)methyl)-5-chlorophenoxyacetic acid]: the IC50 is 1.5 nM. Same read-out and setting: in the case of `COc1ccc(S(=O)(=O)NCc2ccc(OCC(=O)O)c(-c3cc(F)cc(C#N)c3)c2)cc1F` [Example 196, 2-(3-cyano-5-fluorophenyl)-4-((3-fluoro-4-methoxyphenylsulfonamido)methyl)phenoxyacetic acid] it was 0.7 nM. The same measure, in the same setting: then `COc1ccc(S(=O)(=O)N(C)Cc2cc(-c3cc(F)cc(C#N)c3)c(OCC(=O)O)cc2F)cc1F` [Example 197, 2-(3-cyano-5-fluorophenyl)-(5-fluoro-4-((3-fluoro-4-methoxy-N-methylphenylsulfonamido)methyl)phenoxy)acetic acid], with 0.6 nM; and `COc1cc(F)cc(-c2cc(CN(C)S(=O)(=O)c3ccc(F)c(F)c3)ccc2OCC(=O)O)c1` [Example 46, 2-(3-fluoro-5-methoxyphenyl)-4-((3,4-difluoro-N-methylphenylsulfonamido)methyl)phenoxyacetic acid], with 2.1 nM; and `CN(Cc1ccc(OCC(=O)O)c(-c2cc(F)cc(C#N)c2)c1)S(=O)(=O)c1cc(Cl)c(Cl)s1` [Example 192, 2-(3-cyano-5-fluorophenyl)-4-((2,3-dichloro-N-methylthiophene-5-sulfonamido)methyl)phenoxyacetic acid], with 0.2 nM.

The experiment is the same for the next values; noted with them: potency class symbols; Table 2; read-out: CRTH2 hGTPγS IC50.
For the compound `CCN(Cc1ccc(OCC(=O)O)c(-c2cccc(C(F)(F)F)c2)c1)S(=O)(=O)c1ccc(F)c(F)c1` [Example 113, 2-(3-trifluoromethylphenyl)-4-((3,4-difluoro-N-ethylphenylsulfonamido)methyl)phenoxyacetic acid], the IC50 lay in the range of 100 to 1000 nM. Consider `CN(Cc1ccc(OCC(=O)O)c(-c2cc(F)ccc2F)c1)S(=O)(=O)c1ccc(F)cc1` [Example 118, 2-(2,5-difluorophenyl)-4-((4-fluoro-N-methylphenylsulfonamido)methyl)phenoxyacetic acid], for which the IC50 fell in the range of 100 to 1000 nM.

With `CC(C)c1cccc(-c2cc(CN(C)S(=O)(=O)c3ccc(F)cc3)ccc2OCC(=O)O)c1` [Example 117, 2-(3-isopropylphenyl)-4-((4-fluoro-N-methylphenylsulfonamido)methyl)phenoxyacetic acid], the IC50 lay within 100 to 1000 nM.

For `CN(Cc1ccc(OCC(=O)O)c(-c2cccc(C(N)=O)c2)c1)S(=O)(=O)c1ccc(F)cc1` [Example 105, 2-(3-aminocarbonylphenyl)-4-((4-fluoro-N-methylphenylsulfonamido)methyl)phenoxyacetic acid], the concentration for half-maximal inhibition (IC50) is 100 to 1000 nM.

For the compound `CN(Cc1ccc(OCC(=O)O)c(-c2cccc(S(C)(=O)=O)c2)c1)S(=O)(=O)c1cccc(F)c1` [Example 57, 2-(3-methylsulfonylphenyl)-4-((3-fluoro-N-methylphenylsulfonamido)methyl)phenoxyacetic acid], the IC50 was < 100 nM. The same measure, in the same setting: in the case of `CN(Cc1ccc(OCC(=O)O)c(-c2cc(F)cc(C#N)c2)c1)S(=O)(=O)c1ccccc1` [Example 80, 2-(3-cyano-5-fluorophenyl)-4-((N-methylphenylsulfonamido)methyl)phenoxyacetic acid] it was < 100 nM; in that of `CN(Cc1ccc(OCC(=O)O)c(-c2cccc(C(F)(F)F)c2)c1)S(=O)(=O)c1cc(F)cc(F)c1` [Example 137, 2-(3-trifluoromethylphenyl)-4-((3,5-difluoro-N-methylphenylsulfonamido)methyl)phenoxyacetic acid], 100 to 1000 nM. Still for that read-out and setting: in the case of `CN(Cc1cc(-c2cccc(C#N)c2)c(OCC(=O)O)cc1Cl)S(=O)(=O)c1ccc(F)c(Cl)c1` [Example 42, 2-(3-cyanophenyl)-4-((3-chloro-4-fluoro-N-methylphenylsulfonamido)methyl)-5-chlorophenoxyacetic acid] it was < 100 nM. On the same count and under the same terms, in the case of `CN(Cc1cc(-c2cc(F)cc(C#N)c2)c(OCC(=O)O)cc1F)S(=O)(=O)c1ccc(F)cc1` [Example 208, 2-(3-cyano-5-fluoro-phenyl)-4-((4-fluoro-N-methylphenylsulfonamido)methyl)-5-fluorophenoxyacetic acid] it was < 100 nM; in that of `COc1ccc(S(=O)(=O)N(C)Cc2ccc(OCC(=O)O)c(-c3cc(F)cc(F)c3)c2)cc1F` [Example 189, 2-(3,5-difluorophenyl)-4-((3-fluoro-4-methoxy-N-methylphenylsulfonamido)methyl)phenoxyacetic acid], < 100 nM; in that of `CN(Cc1ccc(OCC(=O)O)c(-c2cc(F)cc(F)c2)c1)S(=O)(=O)c1ccc(F)c(F)c1` [Example 90, 2-(3,5-difluorophenyl)-4-((3,4-difluoro-N-methylphenylsulfonamido)methyl)phenoxyacetic acid], < 100 nM. For the compound `CN(Cc1ccc(OCC(=O)O)c(-c2cc(F)cc(C#N)c2)c1)S(=O)(=O)c1cccc(F)c1` [Example 61, 2-(3-cyano-5-fluorophenyl)-4-((3-fluoro-N-methylphenylsulfonamido)methyl)phenoxyacetic acid], the IC50 is < 100 nM. Turning to `CN(Cc1ccc(OCC(=O)O)c(-c2cccc(C(F)(F)F)c2)c1)S(=O)(=O)Cc1ccccc1` [Example 159, 2-(3-trifluoromethylphenyl)-4-((N-methylbenzylsulfonamido)methyl)phenoxyacetic acid], the half-inhibitory concentration (IC50) was in the range of 1000 to 10000 nM. On the same count and under the same terms, then `Cc1nnc(-c2cccc(-c3cc(CN(C)S(=O)(=O)c4ccc(F)cc4)ccc3OCC(=O)O)c2)o1` [Example 129, 2-(3-(5-methyl-1,3,4-oxadiazol-2-yl)phenyl)-4-((4-fluoro-N-methylphenylsulfonamido)methyl)phenoxyacetic acid], with 100 to 1000 nM; and `CN(Cc1ccc(OCC(=O)O)c(-c2cccc(C(F)(F)F)c2)c1)S(=O)(=O)c1ccc(F)cc1F` [Example 107, 2-(3-trifluoromethylphenyl)-4-((2,4-difluoro-N-methylphenylsulfonamido)methyl)phenoxyacetic acid], with 100 to 1000 nM. Same read-out and setting: then `CC(C)N(Cc1ccc(OCC(=O)O)c(-c2cccc(C(F)(F)F)c2)c1)S(=O)(=O)c1ccc(F)cc1` [Example 158, 2-(3-trifluoromethylphenyl)-4-((4-fluoro-N-isopropylphenylsulfonamido)methyl)phenoxyacetic acid], with 1000 to 10000 nM; and `CNS(=O)(=O)c1cccc(-c2cc(CN(C)S(=O)(=O)c3ccc(F)c(F)c3)ccc2OCC(=O)O)c1` [Example 50, 2-(3-N-methylsulfamoylphenyl)-4-((3,4-difluoro-N-methylphenylsulfonamido)methyl)phenoxyacetic acid], with < 100 nM; and `COc1cccc(-c2cc(CN(C)S(=O)(=O)c3ccc(F)cc3)ccc2OCC(=O)O)c1` [Example 133, 2-(3-methoxyphenyl)-4-((4-fluoro-N-methylphenylsulfonamido)methyl)phenoxyacetic acid], with 100 to 1000 nM. Regarding `CN(Cc1ccc(OCC(=O)O)c(-c2ccc(C(F)(F)F)cc2)c1)S(=O)(=O)c1ccc(F)cc1` [Example 162, 2-(4-trifluoromethylphenyl)-4-((4-fluoro-N-methylphenylsulfonamido)methyl)phenoxyacetic acid], the half-maximal inhibitory concentration (IC50) is 1000 to 10000 nM.

As to `CN(C)S(=O)(=O)c1cccc(-c2cc(CN(C)S(=O)(=O)c3ccc(F)cc3)ccc2OCC(=O)O)c1` [Example 85, 2-(3-N,N-dimethylsulfamoylphenyl)-4-((4-fluoro-N-methylphenylsulfonamido)methyl)phenoxyacetic acid], the IC50 was < 100 nM. Turning to `CN(Cc1ccc(OCC(=O)O)c(-c2cccc(C#N)c2)c1)S(=O)(=O)c1ccc(Cl)c(Cl)c1` [Example 56, 2-(3-cyanophenyl)-4-((3,4-dichloro-N-methylphenylsulfonamido)methyl)phenoxyacetic acid], the IC50 was < 100 nM. Still for that read-out and setting: in the case of `COc1ccc(S(=O)(=O)NCc2ccc(OCC(=O)O)c(-c3cc(F)cc(C#N)c3)c2)cc1F` [Example 196, 2-(3-cyano-5-fluorophenyl)-4-((3-fluoro-4-methoxyphenylsulfonamido)methyl)phenoxyacetic acid] it was < 100 nM. Turning to `CN(Cc1cc(F)c(OCC(=O)O)c(-c2cc(F)cc(F)c2)c1)S(=O)(=O)c1ccc(F)cc1` [Example 139, 2-(3,5-difluorophenyl)-4-((4-fluoro-N-methylphenylsulfonamido)methyl)-6-fluorophenoxyacetic acid], the IC50 fell in the range of 100 to 1000 nM.

On to `COc1cc(S(=O)(=O)N(C)Cc2ccc(OCC(=O)O)c(-c3cccc(C#N)c3)c2)ccc1F` [Example 103, 2-(3-cyanophenyl)-4-((3-methoxy-4-fluoro-N-methylphenylsulfonamido)methyl)phenoxyacetic acid], for which the IC50 lay in the range of 100 to 1000 nM. Take `COc1ccc(S(=O)(=O)N(C)Cc2cc(-c3cc(F)cc(C#N)c3)c(OCC(=O)O)cc2F)cc1F` [Example 197, 2-(3-cyano-5-fluorophenyl)-(5-fluoro-4-((3-fluoro-4-methoxy-N-methylphenylsulfonamido)methyl)phenoxy)acetic acid]: the 50% inhibitory concentration (IC50) was < 100 nM. With `COc1cc(F)cc(-c2cc(CN(C)S(=O)(=O)c3ccc(F)c(F)c3)ccc2OCC(=O)O)c1` [Example 46, 2-(3-fluoro-5-methoxyphenyl)-4-((3,4-difluoro-N-methylphenylsulfonamido)methyl)phenoxyacetic acid], the IC50 was < 100 nM. Same read-out and setting: then `COc1ccc(S(=O)(=O)N(C)Cc2ccc(OCC(=O)O)c(-c3cc(F)cc(C#N)c3)c2)cc1F` [Example 41, 2-(3-cyano-5-fluorophenyl)-4-((3-fluoro-4-methoxy-N-methylphenylsulfonamido)methyl)phenoxyacetic acid], with < 100 nM; and `CN(Cc1ccc(OCC(=O)O)c(-c2cc(F)cc(C#N)c2)c1)S(=O)(=O)c1cc(Cl)c(Cl)s1` [Example 192, 2-(3-cyano-5-fluorophenyl)-4-((2,3-dichloro-N-methylthiophene-5-sulfonamido)methyl)phenoxyacetic acid], with < 100 nM. As to `CN(Cc1cc(-c2cc(F)cc(C#N)c2)c(OCC(=O)O)cc1F)S(=O)(=O)c1ccc(Cl)c(Cl)c1` [Example 211, 2-(3-cyano-5-fluoro-phenyl)-4-((3,4-dichloro-N-methylphenylsulfonamido)methyl)-5-fluorophenoxyacetic acid], the IC50 is < 100 nM.

In general, IC50 refers to the concentration that inhibits the measured activity by half.
